Assay results published in patent publication US20090246169A1, “INDOLOPYRIDINES AS EG5 KINESIN MODULATORS” (priority 2006, published 2009).

tested on: RKO p21 colon adenocarcinoma cells, uninduced (proliferating); assay: Alamar Blue cell viability assay, RKO p21 uninduced (proliferating); format: cell-based; settings: Homo sapiens; anti-proliferative/cytotoxic activity, 72 hours, without Ponasterone A; read-out: −log EC50 [mol/l] RKO p21 uninduced (proliferating) (converted)
Description: The anti-proliferative/cytotoxic activity of the compounds described herein can be tested on subclones of RKO human colon adenocarcinoma cells (Schmidt et al., Oncogene 19, 2423-2429; 2000) using the Alamar Blue cell viability assay (described in O'Brien et al. Eur J Biochem 267, 5421-5426, 2000). The compounds are dissolved as 10 mM solutions in DMSO and subsequently diluted in semi-logarithmic steps. DMSO dilutions are further diluted 1:100 into Dulbecco's modified Eagle's medium (DMEM) containing 10% fetal calf serum to a final concentration twice as much as the final concentration in the test. RKO subclones are seeded into 96 well flat bottom plates at a density of 4000 cells per well in a volume of 50 μl per well. 24 hours after seeding the 50 μl each of the compound dilutions in DMEM medium are added into each well of the 96 well plate. Each compound dilution is tested as triplicates. Wells containing untreated control cells are filled with 50 μl DMEM medium containing 1% DMSO. The cells are then incubated with the substances for 72 hours at 37° C. in a humidified atmosphere containing 5% carbon dioxide. To determine the viability of the cells, 10 μl of an Alamar Blue solution (Biosource) are added and the fluorescence is measured at an extinction of 544 nm and an emission of 590 nm. For the calculation of the cell viability the emission value from untreated cells is set as 100% viability and the emission rates of treated cells are set in relation to the values of untreated cells. Viabilities are expressed as % values. The Graphpad Prism program is used for the calculation of EC50 values for anti-proliferative/cytotoxic activity out of the obtained dose-response curves.
To determine the cell cycle specific mode of action, subclones of RKO colon adenocarcinoma cells (RKOp21 or RKOp27 as described by Schmidt et al. in Oncogene 19, 2423-2429; 2000) are seeded into 96 well flat bottom plates at a density of 16000 cells per well in a volume of 50 μl per well in DMEM growth medium with 10% FCS containing 10 μM Ponasterone A. 24 hours after seeding the 50 μl each of the compound dilutions in DMEM medium are added into each well of the 96-well plate. Each compound dilution is tested as triplicates. Wells containing untreated control cells are filled with 50 μl DMEM medium containing 1% DMSO. The cells are then incubated with the substances for 72 hours at 37° C. in a humidified atmosphere containing 5% carbon dioxide. To determine the viability of the cells, 10 μl of an Alamar Blue solution (Biosource) are added and the fluorescence is measured at an extinction of 544 nm and an emission of 590 nm. For the calculation of the cell viability the emission value from untreated cells is set as 100% viability and the emission rates of treated cells are set in relation to the values of untreated cells. Viabilities are expressed as % values. The Graphpad Prism program (GraphPad Software, Inc) is used for the calculation of EC50 values out of the obtained dose-response curves. Viability is compared of proliferating cells grown in the absence of the inducer Ponasterone A, versus viability of cells arrested by the expression of ectopic p27Kip1 induced by Ponasterone A.
Representative values for anti-proliferation/cytotoxicity [measured as −log EC50 (mol/l)] determined in the aforementioned assays follow from the following tables B1 and B2, in which the numbers of the compounds correspond to the numbers of the examples.

SMILES | EC50 [µM]
COc1ccc2[nH]c3c(c2c1)C[C@@]1(C)C(=O)N(CCCn2ccnc2)C(=O)N1[C@@H]3c1ccccc1 (racemic) [Example 63, (3aSR, 10RS)-2-(3-Imidazol-1-yl-propyl)-6-methoxy-3a-methyl-10-phenyl-3a,4,9,10-tetrahydro-2,9,10a-triaza-cyclopenta[b]fluorene-1,3-dione] | ≤ 1
COc1ccc2[nH]c3c(c2c1)C[C@@]1(C)C(=O)N(CCCNC(C)C)C(=O)N1[C@@H]3c1ccccc1 (racemic) [Example 51, (3aSR, 10RS)-2-(3-Isopropylamino-propyl)-6-methoxy-3a-methyl-10-phenyl-3a,4,9,10-tetrahydro-2,9,10a-triaza-cyclopenta[b] fluorene-1,3-dione] | ≤ 1
COc1ccc2[nH]c3c(c2c1)C[C@@]1(C)C(=O)N(CCCN(C)C(C)C)C(=O)N1[C@@H]3c1ccccc1 (racemic) [Example 59, (3aSR, 10RS)-2-[3-(Isopropyl-methyl-amino)-propyl]-6-methoxy-3a-methyl-10-phenyl-3a,4,9,10-tetra-hydro-2,9,10a-triaza-cyclo-penta[b]fluorene-1,3-dione] | ≤ 1
COc1ccc2[nH]c3c(c2c1)C[C@@]1(C)C(=O)N(CCCN2CCCCCC2)C(=O)N1[C@@H]3c1ccccc1 (racemic) [Example 78, (3aSR, 10RS)-2-(3-Azepan-1-yl-propyl)-6-methoxy-3a-methyl-10-phenyl-3a,4,9,10-tetrahydro-2,9,10a-triaza-cyclopenta[b]fluorene-1,3-dione] | ≤ 1
C=CCNCCN1C(=O)N2[C@H](c3ccccc3)c3[nH]c4ccc(OC)cc4c3C[C@@]2(C)C1=O (racemic) [Example 28, (3aSR, 10RS)-2-(2-Allyl-amino-ethyl)-6-methoxy-3a-methyl-10-phenyl-3a,4,9,10-tetrahydro-2,9,10a-triaza-cyclopenta[b]fluorene-1,3-dione] | ≤ 1
COc1ccc2[nH]c3c(c2c1)C[C@@]1(C)C(=O)N(CCCN2CC=CCC2)C(=O)N1[C@@H]3c1ccccc1 (racemic) [Example 67, (3aSR, 10RS)-2-[3-(3,6-Dihydro-2H-pyridin-1-yl)-propyl]-6-methoxy-3a-methyl-10-phenyl-3a,4,9,10-tetra-hydro-2,9,10a-triaza-cyclo-penta[b]fluorene-1,3-dione] | ≤ 1
COc1ccc2[nH]c3c(c2c1)C[C@@]1(C)C(=O)N(CCCN2CCCCC2)C(=O)N1[C@@H]3c1ccccc1 (racemic) [Example 65, (3aSR, 10RS)-6-Methoxy-3a-methyl-10-phenyl-2-(3-piperidin-1-yl-propyl)-3a,4,9,10-tetrahydro-2,9,10a-triaza-cyclopenta[b]fluorene-1,3-dione] | ≤ 1
COc1ccc2[nH]c3c(c2c1)C[C@@]1(C)C(=O)N(CCNC2CC2)C(=O)N1[C@@H]3c1ccccc1 (racemic) [Example 49, (3aSR, 10RS)-2-(2-Cyclo-propylamino-ethyl)-6-methoxy-3a-methyl-10-phenyl-3a,4,9,10-tetrahydro-2,9,10a-triaza-cyclopenta [b]fluorene-1,3-dione] | ≤ 1
CC[C@@]12Cc3c([nH]c4ccc(OC)cc34)[C@@H](c3ccccc3)N1C(=O)N(CCN)C2=O (racemic) [Example 10, (3aSR,10RS)-2-(2-Amino-ethyl)-3a-ethyl-6-methoxy-10-phenyl-3a,4,9,10-tetrahydro-2,9,10a-triaza-cyclopenta[b]fluorene-1,3-dione] | ≤ 1
COc1ccc2[nH]c3c(c2c1)C[C@@]1(C)C(=O)N(CCNCC2CC2)C(=O)N1[C@@H]3c1ccccc1 (racemic) [Example 25, (3aSR, 10RS)-2-[2-(Cyclo-propylmethyl-amino)-ethyl]-6-methoxy-3a-methyl-10-phenyl-3a,4,9,10-tetrahydro-2,9,10a-triaza-cyclopenta [b]fluorene-1,3-dione] | ≤ 1
CCN(CCO)CCCN1C(=O)N2[C@H](c3ccccc3)c3[nH]c4ccc(OC)cc4c3C[C@@]2(C)C1=O (racemic) [Example 55, (3aSR, 10RS)-2-{3-[Ethyl-(2-hydroxy-ethyl)-amino]-propyl}-6-methoxy-3a-methyl-10-phenyl-3a,4,9,10-tetrahydro-2,9,10a-triaza-cyclopenta[b]fluorene-1,3-dione] | ≤ 1
COc1ccc2[nH]c3c(c2c1)C[C@@]1(C)C(=O)N(CCNC(C)(C)C)C(=O)N1[C@@H]3c1ccccc1 (racemic) [Example 27, (3aSR, 10RS)-2-(2-tert-Butylamino-ethyl)-6-methoxy-3a-methyl-10-phenyl-3a,4,9,10-tetrahydro-2,9,10a-triaza-cyclopenta[b]fluorene-1,3-dione] | ≤ 1
COc1ccc2[nH]c3c(c2c1)C[C@@]1(C)C(=O)N(CCCN2CCCC2)C(=O)N1[C@@H]3c1ccccc1 (racemic) [Example 62, (3aSR, 10RS)-6-Methoxy-3a-methyl-10-phenyl-2-(3-pyrrolidin-1-yl-propyl)-3a,4,9,10-tetrahydro-2,9,10a-triaza-cyclopenta[b]fluorene-1,3-dione] | ≤ 1
COc1ccc2[nH]c3c(c2c1)C[C@@]1(C)C(=O)N(CCCN2CCN(C(C)=O)CC2)C(=O)N1[C@@H]3c1ccccc1 (racemic) [Example 69, (3aSR, 10RS)-2-[3-(4-Acetyl-piperazin-1-yl)-propyl]-6-methoxy-3a-methyl-10-phenyl-3a,4,9,10-tetra-hydro-2,9,10a-triaza-cyclo-penta[b]fluorene-1,3-dione] | ≤ 1
COc1ccc2[nH]c3c(c2c1)C[C@@]1(C)C(=O)N(CCCN2CCOCC2)C(=O)N1[C@@H]3c1ccccc1 (racemic) [Example 61, (3aSR, 10RS)-6-Methoxy-3a-methyl-2-(3-morpholin-4-yl-propyl)-10-phenyl-3a,4,9,10-tetrahydro-2,9,10a-triaza-cyclopenta[b]fluorene-1,3-dione] | ≤ 1
CNCCN1C(=O)N2[C@H](c3ccccc3)c3[nH]c4ccc(OC)cc4c3C[C@@]2(C)C1=O (racemic) [Example 14, (3aSR,10RS)-6-Methoxy-3a-methyl-2-(2-methylamino-ethyl)-10-phenyl-3a,4,9,10-tetrahydro-2,9,10a-triaza-cyclopenta[b]fluorene-1,3-dione] | ≤ 1
COc1ccc2[nH]c3c(c2c1)C[C@@]1(C)C(=O)N(CCCN2CCC(C)CC2)C(=O)N1[C@@H]3c1ccccc1 (racemic) [Example 66, (3aSR, 10RS)-6-Methoxy-3a-methyl-2-[3-(4-methyl-piperidin-1-yl)-propyl]-10-phenyl-3a,4,9,10-tetrahydro-2,9,10a-triaza-cyclopenta[b] fluorene-1,3-dione] | ≤ 1
COc1ccc2[nH]c3c(c2c1)C[C@@]1(C)C(=O)N(CCN)C(=O)N1[C@@H]3c1ccccc1 (racemic) [Example 13, (3aSR,10RS)-2-(2-Amino-ethyl)-6-methoxy-3a-methyl-10-phenyl-3a,4,9,10-tetrahydro-2,9,10a-triaza-cyclopenta[b]fluorene-1,3-dione] | ≤ 1
C#CC(C)NCCN1C(=O)N2[C@H](c3ccccc3)c3[nH]c4ccc(OC)cc4c3C[C@@]2(C)C1=O (stereo partly drawn) [Example 48, (3aSR, 10RS)-6-Methoxy-3a-methyl-2-[2-(R)-1-methyl-prop-2-ynylamino)-ethyl]-10-phenyl-3a,4,9,10-tetrahydro-2,9,10a-triaza-cyclopenta [b]fluorene-1,3-dione and (3aSR, 10RS)-6-Methoxy-3a-methyl-2-[2-(S)-1-methyl-prop-2-ynylamino)-ethyl]-10-phenyl-3a,4,9,10-tetra-hydro-2,9,10a-triaza-cyclo-penta[b]fluorene-1,3-dione] | ≤ 1
COc1ccc2[nH]c3c(c2c1)C[C@@]1(C)C(=O)N(CCCN(C)CCO)C(=O)N1[C@@H]3c1ccccc1 (racemic) [Example 46, (3aSR, 10RS)-2-{3-[(2-Hydroxy-ethyl)-methyl-amino]-propyl}-6-methoxy-3a-methyl-10-phenyl-3a,4,9,10-tetrahydro-2,9,10a-triaza-cyclopenta[b]fluorene-1,3-dione] | ≤ 1
